Experimental data as given in the supplement of paper PMC10307832.

Key:
Assay in all cases: relative viability (nuclei count vs DMSO), 5 days (fraction); higher = more cells survive
[1] = compound: CC1=C(CC(=O)O)c2cc(F)ccc2/C1=C\c1ccc([S+](C)[O-])cc1 [Sulindac] + C[C@@H](Oc1cc(-c2cnn(C3CCNCC3)c2)cnc1N)c1c(Cl)ccc(F)c1Cl [Crizotinib] (partner 1 µM)
Summary of the method: (§1)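 One day after seeding in 1536-well plates, lung cancer cell lines were dosed by pin tool. Dosing was either single-drug or a fixed anchor-drug dose plus five library-drug doses (not always all listed) in √10 steps. After 5 days, nuclei were stained in one fix-and-stain step and counted on 4× images, and relative viability is the nuclei count of treated wells over that of vehicle wells, given as the median of duplicate plates.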

[2] = compound: CC1=C(CC(=O)O)c2cc(F)ccc2/C1=C\c1ccc([S+](C)[O-])cc1 [Sulindac] + N=C(N)NC(=N)NCCc1ccccc1 [Phenformin] (partner 250 µM)
Summary of the method: as §1

[3] = compound: CN[C@@H]1C[C@H]2O[C@@](C)([C@@H]1OC)n1c3ccccc3c3c4c(c5c6ccccc6n2c5c31)C(=O)NC4 [Staurosporine] + Cc1nc(Nc2ncc(C(=O)Nc3c(C)cccc3Cl)s2)cc(N2CCN(CCO)CC2)n1 [Dasatinib] (partner 0.075 µM)
Summary of the method: as §1

[4] = compound: O=c1[nH]cc(F)c(=O)[nH]1 [5-Fluorouracil] + CC(C)C[C@H](NC(=O)[C@H](Cc1ccccc1)NC(=O)c1cnccn1)B(O)O [Bortezomib] (partner 0.002 µM)
Summary of the method: as §1

Row | Cell Line | relative viability ([1]; first compound 0.08 µM) | relative viability ([1]; first compound 0.253 µM) | relative viability ([1]; first compound 0.8 µM) | relative viability ([1]; first compound 2.53 µM) | relative viability ([1]; first compound 8 µM) | relative viability ([2]; first compound 0.08 µM) | relative viability ([2]; first compound 0.253 µM) | relative viability ([2]; first compound 0.8 µM) | relative viability ([2]; first compound 2.53 µM) | relative viability ([2]; first compound 8 µM) | relative viability ([3]; first compound 0.005 µM) | relative viability ([3]; first compound 0.05 µM) | relative viability ([3]; first compound 0.1581 µM) | relative viability ([3]; first compound 0.5 µM) | relative viability ([4]; first compound 0.02 µM) | relative viability ([4]; first compound 0.2 µM) | relative viability ([4]; first compound 0.6325 µM) | relative viability ([4]; first compound 2 µM) | relative viability ([3]; first compound 0.01581 µM)
1 | 201T | 0.954 | 1.03 | 1.08 | 1.01 | 1.13 | 0.478 | 0.435 | 0.314 | 0.451 | 0.486 | 0.55 | 0.544 | 0.402 | 0.279 | 1.11 | 1.04 | 0.417 | 0.346 | 
2 | A549 | 1.13 | 0.783 | 0.651 | 0.892 | 0.924 | 0.109 | 0.154 | 0.95 | 0.232 | 0.244 |  |  |  |  |  |  |  |  | 
3 | A-427 | 0.892 | 0.888 | 0.881 | 0.894 | 0.896 | 0.332 | 0.324 | 0.248 | 0.334 | 0.354 | 0.5 | 0.183 | 0.0891 | 0.128 | 0.888 | 1.07 | 0.986 | 0.532 | 0.206
4 | ABC-1 | 1.44 | 1.03 | 0.809 | 1.19 | 1.6 | 0.23 | 0.214 | 0.209 | 0.255 | 0.226 | 0.341 | 0.167 | 0.109 | 0.139 | 0.251 | 0.274 | 0.361 | 0.375 | 0.193
5 | BEN | 0.994 | 0.903 | 0.648 | 0.984 | 1.13 | 0.284 | 0.276 | 0.227 | 0.218 | 0.275 | 0.288 | 0.356 | 0.236 | 0.167 | 0.779 | 0.869 | 0.655 | 0.655 | 0.288
6 | CAL-12T | 0.689 | 0.661 | 0.563 | 0.629 | 0.797 | 0.662 | 0.615 | 0.418 | 0.529 | 0.681 | 0.14 | 0.0772 | 0.107 | 0.0737 | 1.13 | 1.05 | 0.911 | 0.751 | 0.0881
7 | COR-L23 | 0.711 | 0.783 |  | 0.613 | 0.82 | 0.506 | 0.487 | 0.339 | 0.51 | 0.549 | 0.309 | 0.17 | 0.112 | 0.0512 | 1.04 | 0.85 | 0.41 | 0.221 | 0.186
8 | COR-L 105 | 0.957 | 0.901 | 0.759 | 0.776 | 0.911 | 0.456 | 0.477 | 0.417 | 0.564 | 0.558 | 0.281 | 0.158 | 0.155 | 0.157 | 0.662 | 0.704 | 0.597 | 0.401 | 
9 | Calu-6 | 0.951 | 0.883 | 0.637 | 0.853 | 0.969 |  |  |  |  |  |  |  |  |  | 0.984 | 0.947 | 0.801 | 0.42 | 
10 | ChaGo-K-1 | 1.34 | 1.17 | 0.769 | 1.28 | 1.31 | 0.592 | 0.51 | 0.481 | 0.5 | 0.596 | 0.621 | 0.475 | 0.147 | 0.128 | 0.955 | 1.04 | 0.7 | 0.705 | 0.491
11 | EBC-1 | 0.188 | 0.196 |  | 0.178 | 0.201 |  |  |  |  |  |  |  |  |  | 0.64 | 0.553 | 0.619 | 0.477 | 
12 | EKVX | 1.17 | 0.871 | 0.692 | 0.907 | 0.947 | 0.244 | 0.214 | 0.211 | 0.218 | 0.226 | 0.666 | 0.201 | 0.202 | 0.161 | 0.786 |  | 0.154 | 0.132 | 0.282
13 | EMC-BAC-2 | 0.788 | 0.778 | 0.585 | 0.779 | 0.91 | 0.551 | 0.566 | 0.352 | 0.533 | 0.61 | 0.213 | 0.198 | 0.167 | 0.152 | 1.16 | 1.17 | 1.1 | 1.02 | 0.197
14 | EPLC-272H | 0.932 |  | 0.948 | 0.551 | 0.977 | 0.272 | 0.324 |  | 0.307 | 0.263 | 0.179 | 0.0709 | 0.0723 | 0.103 | 0.891 | 0.733 | 0.376 | 0.254 | 0.0602
15 | H3255 | 0.829 | 1.04 | 0.891 | 0.917 | 1.05 | 0.333 | 0.295 | 0.357 | 0.336 | 0.335 | 0.271 | 0.255 | 0.19 | 0.248 | 0.804 | 0.867 | 0.684 | 0.544 | 0.247
16 | HARA | 1.1 | 1.29 |  | 1.21 | 1.07 | 0.56 | 0.523 | 0.29 | 0.468 | 0.553 | 0.289 | 0.127 | 0.145 | 0.0757 | 1.17 | 1.15 | 1.08 | 1.03 | 
